Row | Compound | melting point [°C]
1 | CSc1nc(C)nc(SC)c1NC(=O)CCCCCSc1nc2ccccc2o1 [Compound No. 1145, 6-(benzoxazole-2-ylthio)-N-[2-methyl-4,6-bis(methylthio)-5-pyrimidyl)hexanamide] | 148 to 151
2 | CSc1cc(C)nc(SC)c1NC(=O)CCCCCSc1nc2ncccc2o1 [Compound No. 1237, 6-(oxazolo[4,5-b]pyridin-2-ylthio)-N-[2,4-bis(methylthio)-6-methyl-3-pyridyl]hexanamide] | 132 to 133
3 | COC(=O)c1cccc2nc(SCCCCCC(=O)Nc3c(SC)cc(C)nc3SC)oc12 [Compound No. 1238, 6-(7-methoxycarbonylbenzoxazol-2-ylthio)-N-[2,4-bis(methylthio)-6-methyl-3-pyridyl]hexanamide] | 141 to 142
4 | COC(=O)c1cccc2nc(SCCCCCCCCC(=O)Nc3c(SC)cc(C)nc3SC)oc12 [Compound No. 1240, 9-(7-methoxycarbonylbenzoxazol-2-ylthio)-N-[2,4-bis(methylthio)-6-methyl-3-pyridyl]nonanamide] | 126 to 128
5 | CSc1cc(C)nc(SC)c1NC(=O)CSc1nc2cccc(C(F)(F)F)c2o1 [Compound No. 1247, 2-(7-trifluoromethylbenzoxazol-2-ylthio)-N-[2,4-bis(methylthio)-6-methyl-3-pyridyl]acetamide] | 207 to 209
6 | CSc1cc(C)nc(SC)c1NC(=O)CCCCSc1nc2cccc(C(F)(F)F)c2o1 [Compound No. 1250, 5-(7-trifluoromethylbenzoxazol-2-ylthio)-N-[2,4-bis(methylthio)-6-methyl-3-pyridyl]pentanamide] | 179 to 180
7 | CSc1cc(C)nc(SC)c1NC(=O)CCCCSc1nc2c(C)c(Cl)cc(C(C)C)c2o1 [Compound No. 1260, 5-(5-chloro-7-isopropyl-4-methylbenzoxazol-2-ylthio)-N-[2,4-bis(methylthio)-6-methyl-3-pyridyl]pentanamide] | 155 to 156
8 | CSc1cc(C)nc(SC)c1NC(=O)CCCCCCSc1nc2c(C)c(Cl)cc(C(C)C)c2o1 [Compound No. 1262, 7-(5-chloro-7-isopropyl-4-methylbenzoxazol-2-ylthio)-N-[2,4-bis(methylthio)-6-methyl-3-pyridyl]heptanamide] | 129 to 131
9 | CCSc1cc(C)nc(SCC)c1NC(=O)CSc1nc2cccc(C(F)(F)F)c2o1 [Compound No. 1267, 2-(7-trifluoromethylbenzoxazol-2-ylthio)-N-[2,4-bis(ethylthio)-6-methyl-3-pyridyl]acetamide] | 182 to 183
10 | CCSc1cc(C)nc(SCC)c1NC(=O)CCCSc1nc2cccc(C(F)(F)F)c2o1 [Compound No. 1269, 4-(7-trifluoromethylbenzoxazol-2-ylthio)-N-[2,4-bis(ethylthio)-6-methyl-3-pyridyl]butanamide] | 148 to 150
11 | CCSc1cc(C)nc(SCC)c1NC(=O)CCCCSc1nc2cccc(C(F)(F)F)c2o1 [Compound No. 1270, 5-(7-trifluoromethylbenzoxazol-2-ylthio)-N-[2,4-bis(ethylthio)-6-methyl-3-pyridyl]pentanamide] | 155 to 156
12 | CCSc1cc(C)nc(SCC)c1NC(=O)CCCCCCSc1nc2cccc(C(F)(F)F)c2o1 [Compound No. 1272, 7-(7-trifluoromethylbenzoxazol-2-ylthio)-N-[2,4-bis(ethylthio)-6-methyl-3-pyridyl]heptanamide] | 127 to 128
13 | CCSc1cc(C)nc(SCC)c1NC(=O)CCCCCCCSc1nc2cccc(C(F)(F)F)c2o1 [Compound No. 1273, 8-(7-trifluoromethylbenzoxazol-2-ylthio)-N-[2,4-bis(ethylthio)-6-methyl-3-pyridyl]octanamide] | 99 to 100
14 | CCSc1cc(C)nc(SCC)c1NC(=O)CCCCCCCCSc1nc2cccc(C(F)(F)F)c2o1 [Compound No. 1274, 9-(7-trifluoromethylbenzoxazol-2-ylthio)-N-[2,4-bis(ethylthio)-6-methyl-3-pyridyl]nonanamide] | 115 to 116
15 | CCSc1cc(C)nc(SCC)c1NC(=O)CCCCSc1nc2c(C)c(Cl)cc(C(C)C)c2o1 [Compound No. 1280, 5-(5-chloro-7-isopropyl-4-methylbenzoxazol-2-ylthio)-N-[2,4-bis(ethylthio)-6-methyl-3-pyridyl]pentanamide] | 141 to 142
16 | CCSc1cc(C)nc(SCC)c1NC(=O)CCCCCCSc1nc2c(C)c(Cl)cc(C(C)C)c2o1 [Compound No. 1282, 7-(5-chloro-7-isopropyl-4-methylbenzoxazol-2-ylthio)-N-[2,4-bis(ethylthio)-6-methyl-3-pyridyl]heptanamide] | 117 to 120
17 | CCSc1cc(C)nc(SCC)c1NC(=O)CCCCCCCSc1nc2c(C)c(Cl)cc(C(C)C)c2o1 [Compound No. 1283, 8-(5-chloro-7-isopropyl-4-methylbenzoxazol-2-ylthio)-N-[2,4-bis(ethylthio)-6-methyl-3-pyridyl]octanamide] | 82 to 84
18 | CCSc1cc(C)nc(SCC)c1NC(=O)CCCCCCCCSc1nc2c(C)c(Cl)cc(C(C)C)c2o1 [Compound No. 1284, 9-(5-chloro-7-isopropyl-4-methylbenzoxazol-2-ylthio)-N-[2,4-bis(ethylthio)-6-methyl-3-pyridyl]nonanamide] | 93 to 94

Second part, the compound after the results:

Row | melting point [°C] | Compound
19 | 74 to 76 | Cc1cc(SC(C)C)c(NC(=O)CCCCCCSc2nc3ccccc3s2)c(SC(C)C)n1 [Compound No. 856, 7-(benzothiazol-2-ylthio)-N-[2,4-bis(isopropylthio)-6-methyl-3-pyridyl]heptanamide]
20 | 107 to 108 | Cc1cc(SC(C)C)c(NC(=O)CCCCCCCSc2nc3ccccc3s2)c(SC(C)C)n1 [Compound No. 857, 8-(benzothiazol-2-ylthio)-N-[2,4-bis(isopropylthio)-6-methyl-3-pyridyl]octanamide]
21 | 223 to 224 | Cc1cc(SC(C)C)c(NC(=O)CSc2nc3ccccc3[nH]2)c(SC(C)C)n1 [Compound No. 861, 2-(benzimidazol-2-ylthio)-N-[2,4-bis(isopropylthio)-6-methyl-3-pyridyl]acetamide]
22 | 175 to 176 | Cc1cc(SC(C)C)c(NC(=O)CCCCSc2nc3ccccc3[nH]2)c(SC(C)C)n1 [Compound No. 864, 5-(benzimidazol-2-ylthio)-N-[2,4-bis(isopropylthio)-6-methyl-3-pyridyl]pentanamide]
23 | 175 to 176 | Cc1cc(SC(C)C)c(NC(=O)CCCCCSc2nc3ccccc3[nH]2)c(SC(C)C)n1 [Compound No. 865, 6-(benzimidazol-2-ylthio)-N-[2,4-bis(isopropylthio)-6-methyl-3-pyridyl]hexanamide]
24 | 118 to 121 | Cc1cc(SC(C)C)c(NC(=O)CCCCCCSc2nc3ccccc3[nH]2)c(SC(C)C)n1 [Compound No. 866, 7-(benzoimidazol-2-ylthio)-N-[2,4-bis(isopropylthio)-6-methyl-3-pyridyl]heptanamide]
25 | 112 to 114 | Cc1cc(SC(C)C)c(NC(=O)CCCCCCCCSc2nc3ccccc3[nH]2)c(SC(C)C)n1 [Compound No. 868, 9-(benzimidazol-2-ylthio)-N-[2,4-bis(isopropylthio)-6-methyl-3-pyridyl]nonanamide]
26 | 129 to 131 | CSc1cc(C)nc(SC)c1NC(=O)CCCCCCSc1nc2cccc(C(F)(F)F)c2o1 [Compound No. 1252, 7-(7-trifluoromethylbenzoxazol-2-ylthio)-N-[2,4-bis(methylthio)-6-methyl-3-pyridyl]heptanamide]
27 | 115 to 116 | CSc1cc(C)nc(SC)c1NC(=O)CCCCCCCSc1nc2cccc(C(F)(F)F)c2o1 [Compound No. 1253, 8-(7-trifluoromethylbenzoxazol-2-ylthio)-N-[2,4-bis(methylthio)-6-methyl-3-pyridyl]octanamide]
28 | 135 to 136 | Cc1cc(SC(C)C)c(NC(=O)CCCSc2nc3cccc(C(F)(F)F)c3o2)c(SC(C)C)n1 [Compound No. 1289, 4-(7-trifluoromethylbenzoxazol-2-ylthio)-N-[2,4-bis(isopropylthio)-6-methyl-3-pyridyl]butanamide]
29 | 118 to 120 | Cc1cc(SC(C)C)c(NC(=O)CCCCSc2nc3cccc(C(F)(F)F)c3o2)c(SC(C)C)n1 [Compound No. 1290, 5-(7-trifluoromethylbenzoxazol-2-ylthio)-N-[2,4-bis(isopropylthio)-6-methyl-3-pyridyl]pentanamide]
30 | 102 to 103 | Cc1cc(SC(C)C)c(NC(=O)CCCCCSc2nc3cccc(C(F)(F)F)c3o2)c(SC(C)C)n1 [Compound No. 1291, 6-(7-trifluoromethylbenzoxazol-2-ylthio)-N-[2,4-bis(isopropylthio)-6-methyl-3-pyridyl]hexanamide]
31 | 141 to 143 | Cc1cc(SC(C)C)c(NC(=O)CCCSc2nc3c(C)c(Cl)cc(C(C)C)c3o2)c(SC(C)C)n1 [Compound No. 1299, 4-(5-chloro-7-isopropyl-4-methylbenzoxazol-2-ylthio)-N-[2,4-bis(isopropylthio)-6-methyl-3-pyridyl]butanamide]
32 | 143 to 145 | Cc1cc(SC(C)C)c(NC(=O)CCCCSc2nc3c(C)c(Cl)cc(C(C)C)c3o2)c(SC(C)C)n1 [Compound No. 1300, 5-(5-chloro-7-isopropyl-4-methylbenzoxazol-2-ylthio)-N-[2,4-bis(isopropylthio)-6-methyl-3-pyridyl]pentanamide]
33 | 99 to 101 | Cc1cc(SC(C)C)c(NC(=O)CCCCCSc2nc3c(C)c(Cl)cc(C(C)C)c3o2)c(SC(C)C)n1 [Compound No. 1301, 6-(5-chloro-7-isopropyl-4-methylbenzoxazol-2-ylthio)-N-[2,4-bis(isopropylthio)-6-methyl-3-pyridyl]hexanamide]
34 | 91 to 93 | Cc1cc(SC(C)C)c(NC(=O)CCCCCCSc2nc3c(C)c(Cl)cc(C(C)C)c3o2)c(SC(C)C)n1 [Compound No. 1302, 7-(5-chloro-7-isopropyl-4-methylbenzoxazol-2-ylthio)-N-[2,4-bis(isopropylthio)-6-methyl-3-pyridyl]heptanamide]
